What was measured:
[1] = molecular target: T1, endogenous full-length AR (Homo sapiens, UniProt P10275, T878A); experiment: AR transcriptional activity, PSA
T1 sequence (P10275 1-920 T878A): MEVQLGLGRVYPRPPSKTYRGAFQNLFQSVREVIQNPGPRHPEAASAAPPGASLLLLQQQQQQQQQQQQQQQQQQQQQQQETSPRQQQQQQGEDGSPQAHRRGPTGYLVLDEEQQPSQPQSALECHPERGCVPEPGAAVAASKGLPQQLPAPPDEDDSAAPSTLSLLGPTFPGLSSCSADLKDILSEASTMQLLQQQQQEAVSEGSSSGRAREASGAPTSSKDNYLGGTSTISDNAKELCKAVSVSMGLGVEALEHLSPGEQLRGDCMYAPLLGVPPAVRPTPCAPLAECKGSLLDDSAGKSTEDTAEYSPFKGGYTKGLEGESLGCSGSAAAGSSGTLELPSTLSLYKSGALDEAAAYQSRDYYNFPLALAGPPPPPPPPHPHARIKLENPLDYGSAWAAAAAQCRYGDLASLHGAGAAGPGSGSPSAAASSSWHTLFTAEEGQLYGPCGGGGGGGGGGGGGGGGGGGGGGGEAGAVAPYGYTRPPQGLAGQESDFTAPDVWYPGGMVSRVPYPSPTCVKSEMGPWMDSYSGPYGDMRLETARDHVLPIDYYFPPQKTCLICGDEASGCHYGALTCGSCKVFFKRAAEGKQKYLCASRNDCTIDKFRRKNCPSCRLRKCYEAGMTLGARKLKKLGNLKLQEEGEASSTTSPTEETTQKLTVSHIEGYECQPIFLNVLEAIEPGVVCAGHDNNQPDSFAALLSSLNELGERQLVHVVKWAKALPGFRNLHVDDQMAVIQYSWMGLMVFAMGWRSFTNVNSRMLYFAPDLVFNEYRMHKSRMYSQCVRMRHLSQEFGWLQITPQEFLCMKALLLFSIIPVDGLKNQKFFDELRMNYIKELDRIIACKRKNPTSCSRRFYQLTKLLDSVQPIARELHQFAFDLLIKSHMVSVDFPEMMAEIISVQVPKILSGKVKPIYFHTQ

recombinant AR AF-1 = molecular target: T2, recombinant AR AF-1 (Homo sapiens, UniProt P10275); experiment: Cell-free binding to recombinant AR AF-1, competition with cold EPI-002; details: preincubation with 60 μM EPI-002 for 6 hours
T2 sequence (P10275 142-485): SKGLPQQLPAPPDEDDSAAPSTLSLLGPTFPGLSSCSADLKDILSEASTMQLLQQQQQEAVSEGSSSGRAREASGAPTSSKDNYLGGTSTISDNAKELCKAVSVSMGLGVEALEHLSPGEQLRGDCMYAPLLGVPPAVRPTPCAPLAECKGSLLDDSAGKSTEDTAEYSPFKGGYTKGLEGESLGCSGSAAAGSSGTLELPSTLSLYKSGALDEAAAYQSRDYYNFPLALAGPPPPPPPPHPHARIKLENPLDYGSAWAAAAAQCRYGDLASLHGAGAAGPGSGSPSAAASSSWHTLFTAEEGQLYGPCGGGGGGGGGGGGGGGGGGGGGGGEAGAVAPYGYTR

recombinant AR LBD = molecular target: T3, recombinant AR LBD (Homo sapiens, UniProt P10275); experiment: Fluorescence polarization competition binding, AR LBD; details: 1 nM fluorescently labeled ligand, AR LBD 25 nM
T3 sequence (P10275 669-900 limits assumed): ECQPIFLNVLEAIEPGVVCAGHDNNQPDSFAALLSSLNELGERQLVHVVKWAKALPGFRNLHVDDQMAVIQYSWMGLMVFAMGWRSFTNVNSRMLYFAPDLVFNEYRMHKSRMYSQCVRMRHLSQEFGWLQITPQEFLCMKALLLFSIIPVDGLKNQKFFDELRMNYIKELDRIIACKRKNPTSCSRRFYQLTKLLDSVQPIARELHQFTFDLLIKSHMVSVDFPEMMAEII

LNCaP95 cells [2] = experiment: LNCaP95 proliferation, BrdU incorporation; assay type: cell-based, human; details: I-EPI-002 2 μM, EPI-002 25 μM, enzalutamide 5 μM; 2 days
LNCaP95 cells [3] = experiment: Cell cycle analysis of LNCaP95 cells; assay type: cell-based, human; details: I-EPI-002 5 μM, EPI-002 25 μM, 48 hours
LNCaP95 cells [4] = experiment: Western blot of cell cycle G1/S-related proteins in LNCaP95 cells; assay type: cell-based, human; details: enzalutamide 5 μM, EPI-002 25 μM, I-EPI-002 5 μM; 48 hours

| Structure (SMILES) | inhibition of AR transcriptional activity ([1]; 25 μM, R1881 1 nM) [%] | inhibition of AR transcriptional activity with increasing concentrations of androgen ([1]; increasing R1881, enzalutamide 5 μM, I-EPI-002 5 μM, EPI-002 25 μM) | displacement of ^123I-EPI-002 binding to AF-1 (recombinant AR AF-1) | competition with fluoromone for binding to AR LBD (recombinant AR LBD) | effect on proliferation of LNCaP95 cells (LNCaP95 cells [2]) | decrease of S phase cells (LNCaP95 cells [3]) [fold] | expression of UBE2C, cyclinD3 and cyclin-dependent kinases (CDKs) (LNCaP95 cells [4]) | protein expression of the CDK inhibitor p27kip1 (LNCaP95 cells [4]) |
| --- | --- | --- | --- | --- | --- | --- | --- | --- |
| CC(C)(c1ccc(OC[C@H](O)CO)cc1)c1ccc(OC[C@H](O)CCl)cc1 [EPI-002, reference compound] | ~75 | maintained effective inhibition | displaced binding | did not prevent ligand-binding | decreased proliferation | ≥ 2 | – | – |
| CNC(=O)c1ccc(N2C(=S)N(c3ccc(C#N)c(C(F)(F)F)c3)C(=O)C2(C)C)cc1F [enzalutamide] | – | – | – | – | – | – | had no effect | had no effect |

From paper PMC4980083 (JCI insight, 2016)
